# Test system: Td (ATCC 35405)
# Test: Bacterial proliferation measured by OD600
# Type: cell-based, Treponema denticola
# Conditions: HCA at 0.1 μM; anaerobic culture
# Method: Sg metabolites promote commensal bacterial proliferation and inhibit periodontopathogenic bacterial proliferation and colonization. Commensal bacteria, Sg, S. sanguinis (Ss, ATCC10556), S. mitis (Sm, ATCC49456) and S. oralis (So, ATCC 35037) were cultured in BHI medium. In addition, pathogenic bacteria, Pg was cultured using BHI and Tf (ATCC43037), and Td (ATCC 35405) were grown in Thioglycollate medium with vitamin K and Hemin in 90% N2, 5% H2, 5% CO2. The Sg metabolites were diluted using DMEM and added to the bacteria with the similar OD600 value. The same amount of DMEM was used as a control. During the exponential growth of bacteria, the OD600 value was measured to determine the proliferation. […] In addition, to determine the function of Sg metabolites on Pg colonization, Pg were inoculated in 24-well plates containing BHI or BHI supplemented with DMEM or Sg metabolites. […]
# HCA promotes proliferation of health related bacteria and inhibits proliferation and attachment of periodontopathogenic bacteria. […] The composition of the microbiomes was determined by amplifying the V3 and V4 regions of the 16S rRNA genes. Raw data in FASTQ format were filtered and denoised using DADA2 (Divisive Amplicon Denoising Algorithm) to generate amplicon sequence variants (ASV) or operational taxonomical units (OTUs) that were then analyzed by QIIME2.
smiles,measurement,value
"O=C(O)CCCCCO [HCA, 6-hydroxycaproic acid]",proliferation of T. denticola,significantly inhibits
